Measured values: patent publication US5700640A, “Inducers of gamma globin gene expression and screening assays therefor” (priority 1994, dated 1997)

Key:
[1] = system: gamma globin gene expression (gamma3'PE reporter) in K562 cells; test: gamma globin promoter-luciferase reporter assay in stably transfected gamma3'PE K562 cells
Protocol: The gamma globin 5' promoter and 3' enhancer fragments, alone or in combination with each other or another fragment, were inserted into restriction endonuclease sites flanking the coding sequences of the luciferase gene in pGL2 using standard recombinant DNA techniques (pGL2 was obtained commercially from Promega Biotech). Constructs were prepared which contained: 1) the gamma globin promoter alone upstream of the luciferase gene (gamma); 2) the gamma globin promoter upstream of the luciferase gene and the gamma globin 3' enhancer downstream of the luciferase gene (gamma3'PE); 3) the gamma globin promoter upstream of the luciferase gene and the SV40 enhancer downstream of the luciferase gene (gammaSV40); 4) the beta globin promoter upstream of the luciferase gene and the gamma globin 3' enhancer downstream of the luciferase gene Coeta3'PE); and 5) hypersensitive sites 2 and 3 G-IS2 and HS3) of the 5' globin enhancer upstream of the gamma globin promoter upstream of the luciferase gene and the gamma globin 3' enhancer downstream of the luciferase gene (HS2/3gamma3'PE). These constructs are illustrated schematically in FIG. 2.
The gamma globin-luciferase reporter gene constructs described in Example 1 were introduced into a human erythroleukemia cell line K562 (ATCC No. CCL 243). To create stable transfectants, K562 cells (5×10^6) in log phase were suspended in 400 μl HEPES buffered saline and then combined with 33.5 μg salmon testes DNA (Sigma), 1.5 μg neo plasmid (pPMT) and 15 μg reporter gene plasmid supercoiled that had been co-precipitated and suspended in 400 μl HEPES buffered saline. The DNA-cell mixture was electroporated at settings of 0.25 KV and 960 μFD using a Gene Pulser (BioRad Inc.) electropotation apparatus.
The cells were allowed to recover 10 minutes at room temperature, then added to 10 ml complete RPMI cell culture medium. Cell debris was removed by centrifugation at 1000 rpm for 5 minutes. The live cells were suspended in 20 ml RPMI in 2×10 cm dishes and grown in non-selective media for 48 hours. Stably transfected cells were then selected by growing the cells in media containing 300 μg/ml G418 for about one month. During this time the cells were split 1:5 every 3 to 4 days. Once the lines were stable, they were carried in 100 μg/ml G418. The cell lines were designated according to the reporter gene construct that was introduced into the cell line. For example, a cell line carrying the gamma'3PE construct was designated gamma3'PE. Transient transfections were carried out similarly except that the neo plasmid was omitted from the electroporation solution and the cells were not subjected to G418 selection.
K562 host cells carrying gamma globin-reporter gene constructs were used to lo screen compounds for their ability to induce globin gene expression, as measured by increased reporter gene activity in the host cells upon treatment with the compound. The host cells described in Example 2 were grown to log phase cells and plated at a density of 2×10^5 /ml in RPMI media without G418. After 24 hours, compounds to be assayed for their ability to induce globin gene expression were dissolved in RPMI media at a concentration of 5 mM and added to the K562 stable transfectants. Mock-treated stably transfected K562 cells served as a negative control. The cells were incubated with the test compounds at 37° C. for various time periods (e.g., 24, 50, 74 and 122 hours).
After induction with the test compounds, the cells were harvested, lysed and assayed for reporter gene activity (i.e., luciferase activity) as follows. Cells were collected, washed once with PBS and lysed in 200 μl Cell Culture Lysis 1 X Reagent (Promega Luciferase Assay System) consisting of 25 mM Tris-Phosphate pH 7.8; 2 mM DTT; 2 mM 1,2-diaminocyclohexane-N,N,N,N-tetraacetic acid; 10% glycerol; 1% Triton X-100.

gamma globin mRNA = test: Northern hybridization of gamma globin mRNA in treated K562 cells; type: cell-based, human
Protocol: Total RNA was prepared by the method of McDonald as described in Sambrook et al., (1989) Molecular Cloning: A Laboratory Manual, 2nd Edition, Cold Spring Harbor Laboratory Press. 10 μg total cellular RNA was electrophoresed through agarose gels containing 3.3% formaldehyde. The electrophoresed RNA was then transferred to nitrocellulose filters by standard methods. Each sample was hybridized to specific probes for gamma globin mRNA, mRNA encoding the erythroid specific transcription factor GATA-1 and 28S ribosomal RNA (which was used for standardization). The gamma globin and GATA-1 probes were cDNA probes, which were labeled with ^32 p by random priming reactions (Promega Biotech Inc.). The 28S ribosomal RNA probe was an oligonucleotide having the sequence 5' […] 3' (SEQ ID NO: 3), which was labeled by 5' end labeling using T4 polynucleotide kinase (New England Biolabs). Nucleotide probes were hybridized to the RNA nitrocellulose filters according to standard techniques. After hybridization, radioactive signals on the nitrocellulose filters were directly quantified using a BioRad GS-250 Molecular Imager. mRNA hybridization intensities were normalized to the amount of 28S ribosomal RNA present for each sample.

in vitro = conditions: human, k562 cells
Protocol: (§1) To normalize luciferase units to the number of viable cells, parallel cell viability assays were performed using 3-(4,5-dimethylthiazol-2-yl)-2,5-diphenyltetrazolium bromide (MTT) (Vistica, D. T. et al. (1991) Cancer Res. 51:2515-2520). Transfected K562 cells were plated in 96 well dishes at a density of 2×10^4 and 2×10^3 cells per 100 μl per well. 24 hours later, the cells were treated with test compounds (at a final concentration of 5 mM). At 24, 50, 74 or 122 hours after treatment, 50 μl of 3 mg/ml MTT in PBS was added to each well. The 96 well plate was then incubated at 37° C. for 4 to 5 hours. The formazan derivatives formed from tetrazolium by viable cells were solubilized by the addition of 50 μl/well 25% SDS, pH 3, overnight at 37° C. The plates were than read at a wavelength of 550 nm.

K562 cells = test: in vitro
Protocol: as §1

[2] = system: gamma globin gene expression; conditions: cited from earlier work

CCCC(=O)O [BA, butyric acid]
induction of gamma-globin reporter gene expression over time course (FIG. 3) ([1]; 5 mM, 24-122 hr, normalized to viable cells): initially a strong inducer of gamma-globin gene expression | level of induction by the conclusion of the time course (FIG. 3) ([1]; 5 mM, normalized to viable cells): dropped below the level of uninduced cells by the conclusion of the time course | fold induction at 5000 µM ([1]; Homo sapiens, K562, 72 h, read-out: fold induction of reporter gene activity (FIG. 6)): ~2 | fold induction at 5000 µM (gamma globin mRNA; Homo sapiens, K562, 96 h, read-out: Fold Induction, gamma globin RNA): 1.3 | Raw Value, gamma globin RNA (gamma globin mRNA; K562 cells, 5 mM, 96 hours): 3.58 × 10^6 | Normalized Value, gamma globin RNA (gamma globin mRNA; normalized to 28S ribosomal RNA, K562 cells, 5 mM, 96 hours): 9.4 × 10^5 | cytotoxicity at 72 h, 5000 µM (in vitro): ~100% | viability at 122 h, 5000 µM (in vitro): < 30% | effect on cell viability within 24 hours (FIG. 7) (K562 cells): negative effect on cell viability within 24 hours after treatment | effect on gamma globin gene expression ([2]; in vitro and in vivo): increase gamma globin gene expression in vitro and in vivo | effect on fetal to adult hemoglobin switch ([2]; in vivo): delay the fetal to adult hemoglobin switch in vivo
